In patent US10004701B2, “Methods and compositions for treating infection” (UNIVERSITY OF ROCHESTER, priority 2012, dated 2018):
Counter-ions that a name gives are not always drawn. Like-named read-outs stand apart in the source and are kept apart here.

Experiments:
Assay in all cases: AK assay 384-well format, Prestwick library screening
[1] = system: S. aureus strain USA300-0114; type: cell-based, Staphylococcus aureus; details: 50 μM final drug concentration; for fold induction at 50 µM: Staphylococcus aureus, USA300, 3 h
K. pneumoniae = type: cell-based, Klebsiella pneumoniae; details: 50 μM final drug concentration; for fold induction at 50 µM: Klebsiella pneumoniae, 3 h
[2] = system: A. baumannii strain 98-37-09; type: cell-based, Acinetobacter baumannii; details: 50 μM final drug concentration; for fold induction at 50 µM: Acinetobacter baumannii, 983709, 3 h
E. faecium = type: cell-based, Enterococcus faecium; details: 50 μM final drug concentration; for fold induction at 50 µM: Enterococcus faecium, 3 h
E. coli = type: cell-based, Escherichia coli; details: 50 μM final drug concentration; for fold induction at 50 µM: Escherichia coli, 3 h
P. aeruginosa = type: cell-based, Pseudomonas aeruginosa; details: 50 μM final drug concentration; for fold induction at 50 µM: Pseudomonas aeruginosa, 3 h
E. cloacae = type: cell-based, Enterobacter cloacae; details: 50 μM final drug concentration; for fold induction at 50 µM: Enterobacter cloacae, 3 h
[3] = cutoff for positive-scoring molecules 3-fold increase
[4] = planktonic S. aureus, 384-well, cutoff for positive-scoring molecules 3-fold increase, read-out: AK-based Prestwick Library Screening Results: S. aureus (increase in extracellular AK activity)
[5] = planktonic K. pneumoniae, 384-well, cutoff for positive-scoring molecules 3-fold increase, read-out: AK-based Prestwick Library Screening Results: K. pneumoniae (increase in extracellular AK activity)
[6] = planktonic A. baumannii, 384-well, cutoff for positive-scoring molecules 3-fold increase, read-out: AK-based Prestwick Library Screening Results: A. baumannii (increase in extracellular AK activity)
[7] = planktonic E. faecium, 384-well, cutoff for positive-scoring molecules 3-fold increase, read-out: AK-based Prestwick Library Screening Results: E. faecium (increase in extracellular AK activity)
[8] = planktonic E. coli, 384-well, cutoff for positive-scoring molecules 3-fold increase, read-out: AK-based Prestwick Library Screening Results: E. coli (increase in extracellular AK activity)
[9] = planktonic P. aeruginosa, 384-well, cutoff for positive-scoring molecules 3-fold increase, read-out: AK-based Prestwick Library Screening Results: P. aeruginosa (increase in extracellular AK activity)
[10] = planktonic E. cloacae, 384-well, cutoff for positive-scoring molecules 3-fold increase, read-out: AK-based Prestwick Library Screening Results: E. cloacae (increase in extracellular AK activity)
[11] = 384-well format, cutoff for positive-scoring molecules 3-fold increase, read-out: AK-based Prestwick Library Screening Results, S. aureus (increase in extracellular AK activity)
[12] = 384-well format, cutoff for positive-scoring molecules 3-fold increase, read-out: AK-based Prestwick Library Screening Results, K. pneumoniae (increase in extracellular AK activity)
[13] = 384-well format, cutoff for positive-scoring molecules 3-fold increase, read-out: AK-based Prestwick Library Screening Results, A. baumannii (increase in extracellular AK activity)
[14] = 384-well format, cutoff for positive-scoring molecules 3-fold increase, read-out: AK-based Prestwick Library Screening Results, E. faecium (increase in extracellular AK activity)
[15] = 384-well format, cutoff for positive-scoring molecules 3-fold increase, read-out: AK-based Prestwick Library Screening Results, E. coli (increase in extracellular AK activity)
[16] = 384-well format, cutoff for positive-scoring molecules 3-fold increase, read-out: AK-based Prestwick Library Screening Results, P. aeruginosa (increase in extracellular AK activity)
[17] = 384-well format, cutoff for positive-scoring molecules 3-fold increase, read-out: AK-based Prestwick Library Screening Results, E. cloacae (increase in extracellular AK activity)
[18] = 384-well format, cutoff for positive-scoring molecules 3-fold increase

With `C[C@]12C[C@H]3S[C@H]3C[C@@H]1CC[C@@H]1[C@@H]2CC[C@]2(C)[C@@H](O)CC[C@@H]12` [Epitiostanol] the fold induction at 50 µM ([1]; planktonic S. aureus, […], read-out: AK-based Prestwick library screening result, S. aureus (fold increase in extracellular AK activity)) was 0.9, the fold induction at 50 µM (K. pneumoniae; planktonic K. pneumoniae, […], read-out: AK-based Prestwick library screening result, K. pneumoniae (fold increase in extracellular AK activity)) was 0.9 and the fold induction at 50 µM ([2]; planktonic A. baumannii, […], read-out: AK-based Prestwick library screening result, A. baumannii (fold increase in extracellular AK activity)) was 1.1. It also gave a fold induction at 50 µM (E. faecium; planktonic E. faecium, […], read-out: AK-based Prestwick library screening result, E. faecium (fold increase in extracellular AK activity)) of 1, a fold induction at 50 µM (E. coli; planktonic E. coli, […], read-out: AK-based Prestwick library screening result, E. coli (fold increase in extracellular AK activity)) of 1.2 and a fold induction at 50 µM (P. aeruginosa; planktonic P. aeruginosa, […], read-out: AK-based Prestwick library screening result, P. aeruginosa (fold increase in extracellular AK activity)) of 1.1. The fold induction at 50 µM (E. cloacae; planktonic E. cloacae, […], read-out: AK-based Prestwick library screening result, E. cloacae (fold increase in extracellular AK activity)) was 1.3.

With `C[C@@H]1NC(=O)NC1=O` [Methylhydantoin-5-(L)] the “AK-based Prestwick Library Screening Results, S. aureus (fold increase in extracellular AK activity)” value [1, 3] was 1.3, the “AK-based Prestwick Library Screening Results, K. pneumoniae (fold increase in extracellular AK activity)” value (K. pneumoniae; [3]) was 1.0 and the “AK-based Prestwick Library Screening Results, A. baumannii (fold increase in extracellular AK activity)” value [2, 3] was 1.0. The “AK-based Prestwick Library Screening Results, E. faecium (fold increase in extracellular AK activity)” value (E. faecium; [3]) was 1.1, the “AK-based Prestwick Library Screening Results, E. coli (fold increase in extracellular AK activity)” value (E. coli; […]) was 1.4 and the “AK-based Prestwick Library Screening Results, P. aeruginosa (fold increase in extracellular AK activity)” value (P. aeruginosa; [3]) was 1.1. The “AK-based Prestwick Library Screening Results, E. cloacae (fold increase in extracellular AK activity)” value (E. cloacae; [3]) was 2.0.

`COc1ccc2c(c1)c(CC(=O)OCC(=O)O)c(C)n2C(=O)c1ccc(Cl)cc1` [Acemetacin] was tested, and the fold induction at 50 µM [1, 4] was 1.1, the fold induction at 50 µM (K. pneumoniae; [5]) was 0.9 and the fold induction at 50 µM [2, 6] was 1.1. For the same molecule, the fold induction at 50 µM (E. faecium; [7]) was 1, the fold induction at 50 µM (E. coli; [8]) was 1.2 and the fold induction at 50 µM (P. aeruginosa; [9]) was 1.1. For the same molecule, the fold induction at 50 µM (E. cloacae; [10]) was 1.3.

Molecule `O=C(O)c1cccnc1Nc1cccc(C(F)(F)F)c1` [Niflumic acid] has a fold induction at 50 µM [1, 11] of 0.7, a fold induction at 50 µM (K. pneumoniae; [12]) of 0.6 and a fold induction at 50 µM [2, 13] of 0.7. The fold induction at 50 µM (E. faecium; [14]) was 0.9, the fold induction at 50 µM (E. coli; [15]) was 0.6 and the fold induction at 50 µM (P. aeruginosa; [16]) was 0.7. For the same molecule, the fold induction at 50 µM (E. cloacae; [17]) was 0.8.

In the case of `CC(=O)c1ccc2c(c1)N(CCCN1CCC(CCO)CC1)c1ccccc1S2` [Piperacetazine], the fold induction at 50 µM ([1]; cutoff for positive-scoring molecules 3-fold increase, read-out: AK-based Prestwick Library Screening Results, S. aureus (fold increase in extracellular AK activity)) is reported as 0.5, the fold induction at 50 µM (K. pneumoniae; cutoff for positive-scoring molecules 3-fold increase, read-out: AK-based Prestwick Library Screening Results, K. pneumoniae (fold increase in extracellular AK activity)) is reported as 0.5 and the fold induction at 50 µM ([2]; cutoff for positive-scoring molecules 3-fold increase, read-out: AK-based Prestwick Library Screening Results, A. baumannii (fold increase in extracellular AK activity)) is reported as 0.6. The fold induction at 50 µM (E. faecium; cutoff for positive-scoring molecules 3-fold increase, read-out: AK-based Prestwick Library Screening Results, E. faecium (fold increase in extracellular AK activity)) was 0.9, the fold induction at 50 µM (E. coli; cutoff for positive-scoring molecules 3-fold increase, read-out: AK-based Prestwick Library Screening Results, E. coli (fold increase in extracellular AK activity)) was 0.5 and the fold induction at 50 µM (P. aeruginosa; cutoff for positive-scoring molecules 3-fold increase, read-out: AK-based Prestwick Library Screening Results, P. aeruginosa (fold increase in extracellular AK activity)) was 0.5. It also gave a fold induction at 50 µM (E. cloacae; cutoff for positive-scoring molecules 3-fold increase, read-out: AK-based Prestwick Library Screening Results, E. cloacae (fold increase in extracellular AK activity)) of 0.4.

For Dihydroergotoxine mesylate, the “AK-based Prestwick Library Screening Results, S. aureus (increase in extracellular AK activity)” value ([1]; planktonic S. aureus, cutoff for positive-scoring molecules 3-fold increase) was 0.4, the “AK-based Prestwick Library Screening Results, K. pneumoniae (increase in extracellular AK activity)” value (K. pneumoniae; planktonic K. pneumoniae, cutoff for positive-scoring molecules 3-fold increase) was 0.5 and the “AK-based Prestwick Library Screening Results, A. baumannii (increase in extracellular AK activity)” value ([2]; planktonic A. baumannii, cutoff for positive-scoring molecules 3-fold increase) was 0.5. For the same molecule, the “AK-based Prestwick Library Screening Results, E. faecium (increase in extracellular AK activity)” value (E. faecium; planktonic E. faecium, cutoff for positive-scoring molecules 3-fold increase) was 0.8, the “AK-based Prestwick Library Screening Results, E. coli (increase in extracellular AK activity)” value (E. coli; planktonic E. coli, cutoff for positive-scoring molecules 3-fold increase) was 0.6 and the “AK-based Prestwick Library Screening Results, P. aeruginosa (increase in extracellular AK activity)” value (P. aeruginosa; planktonic P. aeruginosa, cutoff for positive-scoring molecules 3-fold increase) was 0.4. The “AK-based Prestwick Library Screening Results, E. cloacae (increase in extracellular AK activity)” value (E. cloacae; planktonic E. cloacae, cutoff for positive-scoring molecules 3-fold increase) was 0.6.

`O=C(O)COC(=O)Cc1ccccc1Nc1c(Cl)cccc1Cl` [Aceclofenac] showed a fold induction at 50 µM [1, 11] of 0.7, a fold induction at 50 µM (K. pneumoniae; [12]) of 0.6 and a fold induction at 50 µM [2, 13] of 0.7. For the same molecule, the fold induction at 50 µM (E. faecium; [14]) was 1, the fold induction at 50 µM (E. coli; [15]) was 0.7 and the fold induction at 50 µM (P. aeruginosa; [16]) was 0.8. It also gave a fold induction at 50 µM (E. cloacae; [17]) of 0.8.

For `CC(=O)N(CC(O)CO)c1c(I)c(C(=O)NCC(O)CO)c(I)c(C(=O)NCC(O)CO)c1I` (centres unmarked) [Iohexol], the fold induction at 50 µM ([1]; planktonic S. aureus, cutoff for positive-scoring molecules 3-fold increase, read-out: AK-based Prestwick Library Screening Results, S. aureus (increase in extracellular AK activity)) was 0.7, the fold induction at 50 µM (K. pneumoniae; planktonic K. pneumoniae, cutoff for positive-scoring molecules 3-fold increase, read-out: AK-based Prestwick Library Screening Results, K. pneumoniae (increase in extracellular AK activity)) was 0.7 and the fold induction at 50 µM ([2]; planktonic A. baumannii, cutoff for positive-scoring molecules 3-fold increase, read-out: AK-based Prestwick Library Screening Results, A. baumannii (increase in extracellular AK activity)) was 0.9. It also gave a fold induction at 50 µM (E. faecium; planktonic E. faecium, cutoff for positive-scoring molecules 3-fold increase, read-out: AK-based Prestwick Library Screening Results, E. faecium (increase in extracellular AK activity)) of 0.9, a fold induction at 50 µM (E. coli; planktonic E. coli, cutoff for positive-scoring molecules 3-fold increase, read-out: AK-based Prestwick Library Screening Results, E. coli (increase in extracellular AK activity)) of 1 and a fold induction at 50 µM (P. aeruginosa; planktonic P. aeruginosa, cutoff for positive-scoring molecules 3-fold increase, read-out: AK-based Prestwick Library Screening Results, P. aeruginosa (increase in extracellular AK activity)) of 0.8. It also gave a fold induction at 50 µM (E. cloacae; planktonic E. cloacae, cutoff for positive-scoring molecules 3-fold increase, read-out: AK-based Prestwick Library Screening Results, E. cloacae (increase in extracellular AK activity)) of 1.1.

`Clc1ccc(CCC(Cn2ccnc2)Sc2c(Cl)cccc2Cl)cc1` (centres unmarked) [Butoconazole nitrate] gave a fold induction at 50 µM [1, 4] of 0.6, a fold induction at 50 µM (K. pneumoniae; [5]) of 0.7 and a fold induction at 50 µM [2, 6] of 2. For the same molecule, the fold induction at 50 µM (E. faecium; [7]) was 3.3, the fold induction at 50 µM (E. coli; [8]) was 0.7 and the fold induction at 50 µM (P. aeruginosa; [9]) was 0.5. For the same molecule, the fold induction at 50 µM (E. cloacae; [10]) was 0.5.

`CN(C)CCC(c1ccc(Cl)cc1)c1ccccn1` (centres unmarked) [Chlorpheniramine maleate] was tested, and the fold induction at 50 µM [1, 11] was 0.8, the fold induction at 50 µM (K. pneumoniae; [12]) was 0.7 and the fold induction at 50 µM [2, 13] was 0.9. It also gave a fold induction at 50 µM (E. faecium; [14]) of 0.9, a fold induction at 50 µM (E. coli; [15]) of 1 and a fold induction at 50 µM (P. aeruginosa; [16]) of 0.8. It also gave a fold induction at 50 µM (E. cloacae; [17]) of 1.1.

With `Nc1nc(O)c2[nH]nnc2n1` [Azaguanine-8] the “AK-based Prestwick Library Screening Results, S. aureus (increase in extracellular AK activity)” value [1, 18] was 0.6, the “AK-based Prestwick Library Screening Results, K. pneumoniae (increase in extracellular AK activity)” value (K. pneumoniae; [18]) was 0.3 and the “AK-based Prestwick Library Screening Results, A. baumannii (increase in extracellular AK activity)” value [2, 18] was 0.3. The “AK-based Prestwick Library Screening Results, E. faecium (increase in extracellular AK activity)” value (E. faecium; [18]) was 0.8, the “AK-based Prestwick Library Screening Results, E. coli (increase in extracellular AK activity)” value (E. coli; [18]) was 0.4 and the “AK-based Prestwick Library Screening Results, P. aeruginosa (increase in extracellular AK activity)” value (P. aeruginosa; [18]) was 0.3. For the same molecule, the “AK-based Prestwick Library Screening Results, E. cloacae (increase in extracellular AK activity)” value (E. cloacae; [18]) was 0.3.
